Results published in PubChem BioAssay (NCI).
Values joined by “and” are separate entries in the source; they are usually repeats but may differ in a detail not shown here. Equal entries are not always repeated.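 Assay format: 96-well plates, 48-hour exposure. Abbreviation: GI50, concentration required for 50% inhibition of growth. At the TGI there is no net growth.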

Columns and labels:
Test in all cases: NCI-60 cell line screen, 48 h
HOP-92 NSCLC = test system: HOP-92 NSCLC
NCI-H522 lung = test system: NCI-H522 lung
HCT-15 colon = test system: HCT-15 colon
SNB-19 CNS = test system: SNB-19 CNS
SN12C renal = test system: SN12C renal
KM20L2 colon = test system: KM20L2 colon
PC-3 prostate = test system: PC-3 prostate
HOP-62 NSCLC = test system: HOP-62 NSCLC
MCF7 breast = test system: MCF7 breast
LXFL 529 NSCLC = test system: LXFL 529 NSCLC

SMILES | GI50 (HOP-92 NSCLC) | TGI (HOP-92 NSCLC) | GI50 (NCI-H522 lung) | TGI (NCI-H522 lung) | GI50 (HCT-15 colon) | TGI (HCT-15 colon) | GI50 (SNB-19 CNS) | TGI (SNB-19 CNS) | GI50 (SN12C renal) | TGI (SN12C renal) | GI50 (KM20L2 colon) | TGI (KM20L2 colon) | GI50 (PC-3 prostate) | TGI (PC-3 prostate) | GI50 (HOP-62 NSCLC) | TGI (HOP-62 NSCLC) | GI50 (MCF7 breast) | TGI (MCF7 breast) | TGI (LXFL 529 NSCLC) | GI50 (LXFL 529 NSCLC)
COc1cccc2c1C(=O)c1c(O)c3c(c(O)c1C2=O)C[C@@](O)(C(=O)CO)C[C@@H]3OC1CC(N)CC(C)O1 (some centres undefined) | 0.0638 µM | 0.275 µM and 0.353 µM | 0.0339 µM | 0.179 µM and 0.303 µM | 0.183 µM and 0.125 µM | 3.57 µM and 2.53 µM | 0.0391 µM and 0.0413 µM | 2.31 µM and 3.06 µM | 0.0232 µM | 1.43 µM and 1.07 µM | 0.0545 µM | 0.528 µM and 1.41 µM | 0.0558 µM | 0.33 µM and 0.246 µM | 0.0175 µM | 0.326 µM and 0.0977 µM | 0.00536 µM | 3.71 µM and 1.93 µM | 0.951 µM | –
CC12C/C(=C\c3ccccc3)C(=O)C3C1CCCC32 | – | > 100 µM | – | > 100 µM | – | > 100 µM | – | > 100 µM | – | > 100 µM | – | > 100 µM | – | – | – | > 100 µM | – | – | > 100 µM | –
CC(C)C(CCl)NC(=O)c1cccc(C(=O)N[C@H](CCl)C(C)C)n1 (stereo in doubt) | – | > 100 µM | – | > 100 µM | – | > 100 µM | – | > 100 µM | – | > 100 µM | – | > 100 µM | – | – | – | > 100 µM | – | – | > 100 µM | –
O=C1c2ccccc2C(=O)N1CCn1ccc(NC(c2ccccc2)(c2ccccc2)c2ccccc2)nc1=O | – | 53.3 µM | – | 45.9 µM | – | 62.6 µM | – | 86.1 µM | – | 83 µM | – | 27.5 µM | – | – | – | 33 µM | – | – | > 100 µM | –
N.N.N.N.O=C([O-])CCl.O=C([O-])CCl.[Co+3].[O-][Cl+3]([O-])([O-])[O-] | 86.5 µM | > 100 µM | > 100 µM | > 100 µM | > 100 µM | > 100 µM | > 100 µM | > 100 µM | > 100 µM | > 100 µM | > 100 µM | > 100 µM | – | – | > 100 µM | > 100 µM | – | – | > 100 µM | > 100 µM
